Data as given in ChEMBL document CHEMBL3272323, “1-Halobenzyl-1H-indazole-3-carboxylic acids. A new class of antispermatogenic agents” (1976).
Calls of active or inactive are those of the source. The rule behind the calls is not given here.

System: Rattus norvegicus
Assay: Antispermatogenic activity in po dosed Long-Evans rat assessed as reduction of testes weight administered as single dose measured after 5 days
Assay type: functional
Details: Testis, 120 h, read-out: MED

SMILES	minimal effective dose
O=C(O)c1nn(Cc2ccc(Cl)c(Cl)c2)c2ccccc12	448 mg/kg
O=C(O)c1nn(Cc2ccc(Br)cc2)c2ccccc12	231 mg/kg
O=C(OCC(O)CO)c1nn(Cc2ccccc2Cl)c2ccccc12 (stereo not drawn)	503 mg/kg
Cc1ccc(Cn2nc(C(=O)O)c3ccccc32)c(C)c1 [XINIDAMINE]	101 mg/kg
O=C(O)Cc1nn(Cc2ccc(Cl)cc2)c2ccccc12	419 mg/kg
O=C(O)c1nn(Cc2ccc(F)cc2)c2ccccc12	377 mg/kg
Cc1cc(Cl)ccc1Cn1nc(C(=O)O)c2ccccc21 [TOLNIDAMINE]	52 mg/kg
O=C(OC(CO)CO)c1nn(Cc2ccc(Cl)cc2)c2ccccc12	503 mg/kg
Cc1ccccc1Cn1nc(C(=O)O)c2ccccc21	186 mg/kg
O=C(OCC(O)CO)c1nn(Cc2ccc(Cl)cc2)c2ccccc12 (stereo not drawn)	503 mg/kg
O=C(O)c1nn(Cc2ccccc2Cl)c2ccccc12	200 mg/kg
NC(=O)c1nn(Cc2ccc(Cl)cc2)c2ccccc12	399 mg/kg
O=C(O)c1nn(Cc2ccc(I)cc2)c2ccccc12	528 mg/kg
O=C(O)c1nn(Cc2ccc(Cl)cc2)c2ccccc12	400 mg/kg
O=C(O)c1nn(Cc2ccc(Br)cc2Br)c2ccccc12	76.5 mg/kg
O=C(OCC(O)CO)c1nn(Cc2ccc(Cl)cc2Cl)c2ccccc12 (stereo not drawn)	69 mg/kg
O=C(OCCO)c1nn(Cc2ccc(Cl)cc2)c2ccccc12	486 mg/kg
O=C(O)c1nn(Cc2cc(Cl)c(Cl)cc2Cl)c2ccccc12	248 mg/kg
O=C(O)c1nn(Cc2cccc(Cl)c2)c2ccccc12	400 mg/kg
O=C(O)c1nn(Cc2ccc(Cl)cc2Cl)c2ccccc12 [LONIDAMINE]	56 mg/kg
O=C(OCC(O)CO)c1nn(Cc2cc(Cl)c(Cl)cc2Cl)c2ccccc12 (stereo not drawn)	300 mg/kg

System: Rattus norvegicus
Assay: Antispermatogenic activity in Long-Evans rat assessed as reduction of testes weight at a dose equimolecular to 400 mg/kg of 1-(4-chlorobenzyl)-1H-indazole-3-carboxylic acid administered orally as single dose measured after 5 days
Assay type: functional, organism-based
Parameters: dose 400 mg/kg
Details: Testis

SMILES	Activity
O=C(O)c1nn(S(=O)(=O)c2ccc(Cl)cc2)c2ccccc12	inactive
Cc1c(C(=O)O)c2ccccc2n1Cc1ccc(Cl)cc1	inactive
O=C(O)c1cn(Cc2ccc(Cl)cc2)c2ccccc12	inactive
COc1ccc2c(c1)c(C(=O)O)nn2Cc1ccc(Cl)cc1	inactive
Cc1ccc(Cn2nc(C(=O)O)c3ccccc32)cc1	inactive
O=C(O)c1nn(C(=O)c2ccc(Cl)cc2)c2ccccc12	inactive
N#Cc1ccc(Cn2nc(C(=O)O)c3ccccc32)cc1	inactive
O=C(O)c1ccccc1NCc1ccc(Cl)cc1	inactive
O=C(O)c1nn(Cc2ccc(Cl)cc2)c2ccc(O)cc12	inactive
Sc1nn(Cc2cccc(Cl)c2)c2ccccc12	inactive
COC(=O)c1nn(Cc2ccc(Cl)cc2)c2ccccc12	inactive
O=C(O)c1nn(-c2ccc(Cl)cc2)c2ccccc12	inactive
CC(=O)c1nn(Cc2ccc(Cl)cc2)c2ccccc12	inactive
CS(=O)(=O)c1ccc(Cn2nc(C(=O)O)c3ccccc32)cc1	inactive
N#Cc1nn(Cc2ccc(Cl)cc2)c2ccccc12	inactive
CCOC(=O)c1nn(Cc2ccc(Cl)cc2)c2ccccc12	inactive
Clc1ccc(Cn2nc(-c3nnn[nH]3)c3ccccc32)c(Cl)c1	inactive
O=C(O)c1ccccc1NCc1cccc2ccccc12	inactive
O=C(O)c1nn(Cc2cccc(C(F)(F)F)c2)c2ccccc12	inactive

SMILES	Activity
O=C(O)c1nn(Cc2ccc(S(=O)(=O)c3ccccc3)cc2)c2ccccc12	inactive
Clc1ccc(Cn2ncc3ccccc32)cc1	inactive
O=C(c1ccccc1)c1cccc(Cn2nc(C(=O)O)c3ccccc32)c1	inactive
O=C(O)c1cc2ccccc2n1Cc1ccc(Cl)cc1	inactive
O=C(O)c1nn(Cc2ccc(Cl)c3ccccc23)c2ccccc12	inactive
Cc1nn(Cc2ccc(Cl)cc2)c2ccccc12	inactive
Cc1ccc2c(c1)c(C(=O)O)nn2Cc1ccc(Cl)cc1	inactive
O=C(Cn1nc(C(=O)O)c2ccccc21)c1ccc(Cl)cc1	inactive
OCc1nn(Cc2ccc(Cl)cc2)c2ccccc12	inactive
Nc1nn(Cc2ccc(Cl)cc2)c2ccccc12	inactive
Cc1cccc(Cn2nc(C(=O)O)c3ccccc32)c1	inactive
Cc1cc(Cl)ccc1Cn1nc(-c2nnn[nH]2)c2ccccc21	inactive
O=C(NCCCCCCCCNC(=O)C(Cl)Cl)C(Cl)Cl	inactive
O=C(O)CCc1nn(Cc2ccc(Cl)cc2)c2ccccc12	inactive
O=C(O)c1nn(Cc2c(Cl)cccc2Cl)c2ccccc12	inactive
Clc1ccc(CCn2nc(-c3nnn[nH]3)c3ccccc32)cc1	inactive
Clc1ccc(Cn2nc(-c3nnn[nH]3)c3ccccc32)cc1	inactive
O=C(O)c1nn(Cc2ccc(Cl)cc2)c2ccc(Cl)cc12	inactive
